# Data: PMC11800497, “Antifungal activity and biocompatibility assessment with molecular docking and dynamic simulations of new pyrazole derivatives” (BMC Biotechnology, 2025)
# “Also recorded” adds a separate entry of the source. Marks after values point to notes of the source that are not given here.
# Key:
# [1] = tested on: P. chrysogenum ATCC 10106; assay: Well-diffusion antifungal activity; assay type: cell-based, Penicillium chrysogenum; settings: 1000 µg/ml; for zone of inhibition at 1000 µg/mL: Penicillium chrysogenum, ATCC10106, 72 h, 28 °C, read-out: IZD
# Protocol: (§1) This study investigated strains of four distinct fungal pathogens: Aspergillus flavus ATCC 9643, A. niger ATCC 11414, Rhizopus oryzae ATCC 96382, and Penicillium chrysogenum ATCC 10106. Every strain was acquired from the Dep. of Micro. Fac. Agric., […] Uni., in Egypt. Initially kept and preserved in malt agar medium at 4 °C, the pathogens were then grown overnight at 28 °C in malt broth medium to evaluate the antifungal activity. Fungal pathogen standard inoculum was prepared by following the procedure described by. To assess the antifungal activity, the pathogens were first maintained and stored at 4 °C in malt agar medium. They were then cultured in malt broth medium for a whole night at 28 °C. According to [22], the well-diffusion technique was used to test the antifungal activity. This included using a 9.0 mm cork borer that had been sterilized to create wells in the malt agar layer. […] After adding 1000 μg/ml of control pyrazole compounds and the standard antifungal (Fluconazole 1000 μg/ml) to each well, the petri dishes were incubated at 28 °C for 72 h. The diameter of the standard reference antifungal was compared to the millimeters measurements of the inhibitory zones. The formula according to [22] was utilized to compute the activity index (AI).1 [drawing 1]
# A. flavus ATCC 9643 [2] = assay: Minimal fungal inhibitory concentration (MFIC); assay type: cell-based, Aspergillus flavus; parameters: key to Growth in MFIC test: -: No detected growth; +: Growth observed; settings: 72 h, 28 °C
# Protocol: (§2) In diagnostic laboratories, minimum inhibitory concentrations (MICs) are essential for confirming fungal resistance to an antifungal drug and monitoring the effectiveness of new antifungal medicines. MICs were computed in accordance with the recommendations established by the National Committee for Clinical Laboratory Standards (CLS). In dimethyl sulfoxide (DMSO), pyrazoles were serially diluted twice (1/2, 1/4, and 1/8) and heated at 70 °C for 10 min to get final concentrations of 1000–125 μg/ml, respectively. After that, these dilutions were put into wells that had already been created on plates with fungal infestations. Using a calibrated micropipette, fungus spore suspensions were prepared and added to malt agar welled plates then incubated for 72 h at 28 °C.
# A. niger ATCC 11414 [3] = assay: Minimal fungal inhibitory concentration (MFIC); assay type: cell-based, Aspergillus niger; parameters: key to Growth in MFIC test: -: No detected growth; +: Growth observed; settings: 72 h, 28 °C
# Protocol: as §2
# A. niger ATCC 11414 [4] = assay: Well-diffusion antifungal activity; assay type: cell-based, Aspergillus niger; settings: 1000 µg/ml, 72 h, 28 °C; for zone of inhibition at 1000 µg/mL: Aspergillus niger, ATCC11414, read-out: IZD
# Protocol: This study investigated strains of four distinct fungal pathogens: Aspergillus flavus ATCC 9643, A. niger ATCC 11414, Rhizopus oryzae ATCC 96382, and Penicillium chrysogenum ATCC 10106. Every strain was acquired from the Dep. of Micro. Fac. Agric., […] Uni., in Egypt. Initially kept and preserved in malt agar medium at 4 °C, the pathogens were then grown overnight at 28 °C in malt broth medium to evaluate the antifungal activity. Fungal pathogen standard inoculum was prepared by following the procedure described by [19, 20]. To assess the antifungal activity, the pathogens were first maintained and stored at 4 °C in malt agar medium. They were then cultured in malt broth medium for a whole night at 28 °C. According to [22], the well-diffusion technique was used to test the antifungal activity. This included using a 9.0 mm cork borer that had been sterilized to create wells in the malt agar layer. […] After adding 1000 μg/ml of control pyrazole compounds and the standard antifungal (Fluconazole 1000 μg/ml) to each well, the petri dishes were incubated at 28 °C for 72 h. The diameter of the standard reference antifungal was compared to the millimeters measurements of the inhibitory zones. The formula according to [22] was utilized to compute the activity index (AI).1 [drawing 1]
# R. oryzae ATCC 96382 = assay: Well-diffusion antifungal activity; assay type: cell-based, Rhizopus oryzae; settings: Rhizopus arrhizus, ATCC96382; 1000 µg/ml, 72 h, 28 °C; read-out: IZD
# Protocol: as §1
# A. flavus ATCC 9643 [5] = assay: Well-diffusion antifungal activity; assay type: cell-based, Aspergillus flavus; settings: 1000 µg/ml; for zone of inhibition at 1000 µg/mL: Aspergillus flavus, ATCC9643, read-out: IZD
# Protocol: as §1
# [6] = tested on: A. niger ATCC 11414 and A. flavus ATCC 9643; assay: Activity spectrum in MFIC/MLFC tests (share of strains inhibited); assay type: cell-based, Aspergillus niger, Aspergillus flavus
# Protocol: as §2
# (§3) The term “minimal lethal fungal concentration” (MLFC) refers to the lowest concentration of an antifungal drug that may […]. The fungus was initially subjected to different concentrations of the pyrazole compounds in order to ascertain this concentration. After that, the growth from the MIFC stage was moved to regular malt agar plates. After that, these plates are incubated for 72 h at 28 °C. After then, any growth—or lack thereof—is noted and studied.
# A. niger ATCC 11414 [7] = assay: Minimal lethal fungal concentration (MLFC); assay type: cell-based, Aspergillus niger; parameters: key to Growth in MLFC test: -: No detected growth; +: Growth observed
# Protocol: as §3
# (§4) Following the acquisition of the MFIC and MLFC records, the ratio was computed. The fungicidal activity of a pyrazole compound is defined as a ratio […].
# A. flavus ATCC 9643 [8] = assay: Minimal lethal fungal concentration (MLFC); assay type: cell-based, Aspergillus flavus; parameters: key to Growth in MLFC test: -: No detected growth; +: Growth observed
# Protocol: as §3, §4
# [9] = Biocompatibility, MTT assay; assay type: cell-based, human; settings: human, HFB4 normal human skin cells
# Protocol: (§5) A complete monolayer sheet was created by incubating the 96-well tissue culture plate at 37 °C for 24 h following inoculation with 1 × 10^5 cells/ml (100 µl/well), following the procedure described by. Following the establishment of a confluent sheet of cells, the growth material was collected from the 96-well micro titer plates, and the cell monolayer underwent two washing media washes. […] They then evaluated 0.1 ml of each dilution in several wells. We looked at the cells for physical signs of toxicity, including granulation, rounding, shrinkage, and partial or complete loss of the monolayer. Following the phosphate buffer solution’s preparation, each well received 20 µl of a 5 mg/ml MTT (3-(4,5-dimethylthiazol-2-yl-)-2,5 diphenyltetrazolium bromide) solution from Bio Basic Canada Inc. After that, place it on a shaking table and shake it for five minutes at 150 rpm to completely integrate the MTT. to allow MTT to metabolize, followed by incubation for 4 h at 37 °C with 5% CO2. Media was taken out if necessary, and paper towels were used to wipe out any remaining material from the plate. One may re-dissolve formazan, a metabolic product of MTT, in 200 µL of DMSO. Put on a shaking table and shaken for five minutes at 150 rpm to fully mix the formazan and solvent. At 560 nm, optical density was measured, and at 620 nm, background was subtracted. There should be a direct relationship between optical density and cell number.3 [drawing 3]
# [10] = tested on: HFB4 normal human skin cell line; assay: Biocompatibility, MTT assay; assay type: cell-based
# Protocol: as §5
# A. flavus = tested on: A. flavus; parameters: method as in PMID 31926784; settings: cited from earlier work
# A. fumigatus = tested on: A. fumigatus; parameters: method as in PMID 31926784; settings: cited from earlier work
# A. niger = tested on: A. niger; parameters: method as in PMID 31926784; settings: cited from earlier work
# [11] = relative to Fluconazole 1000 µg/ml
compound,measurement,setting,value
COc1ccc(NC(=O)/C(C#N)=C/c2cn(-c3ccccc3)nc2-c2ccccc2)cc1 [3b],AI (activity index),[1]; [11],0.87
same,zone of inhibition at 1000 µg/mL,[1],20 ± 0.11 mm
same,Growth in MFIC test,A. flavus ATCC 9643 [2]; 125 µg/ml,+
same,Growth in MFIC test,A. flavus ATCC 9643 [2]; 250 µg/ml,-
same,Growth in MFIC test,A. flavus ATCC 9643 [2]; 500 µg/ml,-
same,Growth in MFIC test,A. flavus ATCC 9643 [2]; 1000 µg/ml,-
same,Dose of MFIC,A. flavus ATCC 9643 [2],250 µg/mL
same,Growth in MFIC test,A. niger ATCC 11414 [3]; 125 µg/ml,+
same,Growth in MFIC test,A. niger ATCC 11414 [3]; 250 µg/ml,-
same,Growth in MFIC test,A. niger ATCC 11414 [3]; 500 µg/ml,-
same,Growth in MFIC test,A. niger ATCC 11414 [3]; 1000 µg/ml,-
same,Dose of MFIC,A. niger ATCC 11414 [3],250 µg/mL
same,IZD,A. niger ATCC 11414 [4],32 ± 0.14^a mm
same,zone of inhibition at 1000 µg/mL,A. niger ATCC 11414 [4],32 mm
same,zone of inhibition at 1000 µg/mL,R. oryzae ATCC 96382,0 mm
same,IZD,"A. flavus ATCC 9643 [5]; 72 h, 28 °C",30 ± 0.13^b mm
same,AI (activity index),A. flavus ATCC 9643 [5]; [11],1.0
same,zone of inhibition at 1000 µg/mL,"A. flavus ATCC 9643 [5]; 72 h, 28 °C",30 mm
same,Activity spectrum (MLFC),[6]; 125 µg/ml,0/2 (0%)
same,Activity spectrum (MLFC),[6]; 250 µg/ml,0/2 (0%)
same,Activity spectrum (MLFC),[6]; 500 µg/ml,2/2 (100%)
same,Activity spectrum (MLFC),[6]; 1000 µg/ml,2/2 (100%)
same,Antifungal effect (ratio of MLFC and MFIC),A. niger ATCC 11414 [7],2
same,Growth in MLFC test,"A. niger ATCC 11414 [7]; 125 µg/ml, 72 h, 28 °C",+
same,Growth in MLFC test,"A. niger ATCC 11414 [7]; 250 µg/ml, 72 h, 28 °C",+
same,Growth in MLFC test,"A. niger ATCC 11414 [7]; 500 µg/ml, 72 h, 28 °C",-
same,Growth in MLFC test,"A. niger ATCC 11414 [7]; 1000 µg/ml, 72 h, 28 °C",-
same,Dose of MLFC,"A. niger ATCC 11414 [7]; 72 h, 28 °C",500 µg/mL
same,Antifungal effect (ratio of MLFC and MFIC),A. flavus ATCC 9643 [8],2
same,Growth in MLFC test,"A. flavus ATCC 9643 [8]; 125 µg/ml, 72 h, 28 °C",+
same,Growth in MLFC test,"A. flavus ATCC 9643 [8]; 250 µg/ml, 72 h, 28 °C",+
same,Growth in MLFC test,"A. flavus ATCC 9643 [8]; 500 µg/ml, 72 h, 28 °C",-
same,Growth in MLFC test,"A. flavus ATCC 9643 [8]; 1000 µg/ml, 72 h, 28 °C",-
same,Dose of MLFC,"A. flavus ATCC 9643 [8]; 72 h, 28 °C",500 µg/mL
same,viability at 31.25 µg/ml,[9]; 31.25 µg/ml,99.9%
same,viability at 62.5 µg/ml,[9]; 62.5 µg/ml,99.8%
same,viability at 125 µg/ml,[9]; 125 µg/ml,99.9%
same,viability at 250 µg/ml,[9]; 250 µg/ml,99.8%
same,viability at 500 µg/ml,[9]; 500 µg/ml,99.6%
same,viability at 1000 µg/ml,[9]; 1000 µg/ml,99.2%
same,Toxicity %,[10]; 31.25 µg/ml,0.177%
same,Toxicity %,[10]; 62.5 µg/ml,0.118%
same,Toxicity %,[10]; 125 µg/ml,0.118%
same,Toxicity %,[10]; 250 µg/ml,0.236%
same,Toxicity %,[10]; 500 µg/ml,0.354%
same,Toxicity %,[10]; 1000 µg/ml,0.767%
same,Changes of HFB4 cells,[10]; concentrations 31.25–1000 µg/ml,no significant changes
same,IC50 (cytotoxicity),[10]; tested up to 1000 µg/ml,no IC50 dose obtained; also recorded: no IC50 dose was determined
"O=C1c2c(Br)c(Br)c(Br)c(Br)c2C(=O)N1N=Cc1cn(-c2ccccc2)nc1-c1ccccc1 [compound 6, 4,5,6,7-tetrabromo-2-(((1,3-diphenyl-1H-pyrazol-4-yl)methylene)amino)isoindoline-1,3-dione]",zone of inhibition at 1000 µg/mL,[1],0 mm
same,minimum inhibitory concentration,A. flavus,250 µg/mL
same,minimum inhibitory concentration,A. fumigatus,250 µg/mL
same,zone of inhibition at 1000 µg/mL,A. niger ATCC 11414 [4],0 mm
same,zone of inhibition at 1000 µg/mL,R. oryzae ATCC 96382,0 mm
same,zone of inhibition at 1000 µg/mL,"A. flavus ATCC 9643 [5]; 72 h, 28 °C",0 mm
same,minimum inhibitory concentration,A. niger,250 µg/mL
